# Assay results: ChEMBL document CHEMBL5725497, “Cyclohexyl pyridine derivative” (2017)
# Target: Substance-P receptor (Homo sapiens, UniProt P25103)
# Assay: Receptor Binding Assay: The buffer solution for the receptor binding test was dispensed to the wells of a 96-well assay plate (Greiner) at 22.5 μL/well. DMSO solutions of a test compound, which were prepared at an 80-time higher concentration using 100% dimethyl sulfoxide (DMSO), were added to the wells at 2.5 μL/well (final concentrations of 1 nM to 100 nM), and the solutions were mixed. As a radiolabeled ligand, 125I-substance P (Substance P, [125I]Tyr8-, PerkinElmer) was used. 125I-substance P was diluted with the buffer solution for the receptor binding test to a concentration resulting in 125 pmol/25 μL/well and added to the 96-well assay plate, and the solutions were mixed. The membrane fraction prepared from the human NK1 receptor-expressing cells was diluted with the buffer solution for the receptor binding test to a concentration resulting in 8 to 10 μg/well, suspended until the suspension became in such a homogenous state that the suspension could flow through a 27 G injection needle smoothly and then added to the 96-well assay plate at 150 μL/well. Then, the plate was incubated at room temperature for 60 minutes while shaking the plate. […]
# Sequence of Substance-P receptor (P25103 whole entry): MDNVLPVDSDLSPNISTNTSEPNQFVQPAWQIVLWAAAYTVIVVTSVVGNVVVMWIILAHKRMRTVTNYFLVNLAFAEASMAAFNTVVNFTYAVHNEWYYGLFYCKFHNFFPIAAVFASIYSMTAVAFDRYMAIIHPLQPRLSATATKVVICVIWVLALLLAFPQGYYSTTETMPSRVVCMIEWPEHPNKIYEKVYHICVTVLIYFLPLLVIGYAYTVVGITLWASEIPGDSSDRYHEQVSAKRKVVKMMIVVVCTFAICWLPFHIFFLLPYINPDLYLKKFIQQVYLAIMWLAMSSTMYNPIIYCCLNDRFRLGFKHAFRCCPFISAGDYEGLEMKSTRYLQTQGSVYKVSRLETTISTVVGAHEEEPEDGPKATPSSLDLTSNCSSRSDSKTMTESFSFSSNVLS
structure (smiles),measurement,value
Cc1cc(F)ccc1-c1cc(C2CCC(CC(=O)O)CC2)nc(Cl)c1N(C)C(=O)C(C)(C)c1cc(C(F)(F)F)cc(C(F)(F)F)c1 (stereo unspecified),IC50,5.51 nM
